# According to patent US8871680B2, “Herbicidal compositions comprising 4-amino-3-chloro-5-fluoro-6-(4-chloro-2-fluoro-3-methoxyphenyl) pyridine-2-carboxylic acid or a derivative thereof and a di-methoxy-pyrimidine and derivatives thereof” (Dow AgroSciences LLC, priority 2012, dated 2014):
# Assays:
# ECHOR = assay: In-water applied weed control, transplanted paddy rice (greenhouse); assay type: in vivo, Echinochloa oryzoides (Ard.) Fritsch
# Procedure: (§1) Weed seeds or nutlets of the desired test plant species were planted in puddled soil (mud) prepared by mixing a shredded, non-sterilized mineral soil (50.5 percent silt, 25.5 percent clay, and 24 percent sand, with a pH of about 7.6 and an organic matter content of about 2.9 percent) and water at a 1:1 volumetric ratio. The prepared mud was dispensed in 365 mL aliquots into 16-ounce (oz.) non-perforated plastic pots with a surface area of 86.59 square centimeters (cm^2) leaving a headspace of 3 centimeters (cm) in each pot. Mud was allowed to dry overnight prior to planting or transplanting. Rice seeds were planted in Sun Gro MetroMix® 306 planting mixture, which typically has a pH of 6.0 to 6.8 and an organic matter content of about 30 percent, in plastic plug trays. Seedlings at the second or third leaf stage of growth were transplanted into 860 mL of mud contained in 32-oz. non-perforated plastic pots with a surface area of 86.59 cm^2 4 days prior to herbicide application. The paddy was created by filling the headspace of the pots with 2.5 to 3 cm of water. When required to ensure good germination and healthy plants, a fungicide treatment and/or other chemical or physical treatment was applied. The plants were grown for 4-22 days in a greenhouse with an approximate 14 hr photoperiod which was maintained at about 29′C during the day and 26° C. during the night. Nutrients were added as Osmocote® (19:6:12, N:P:K+minor nutrients) at 2 g per 16-oz. pot and 4 g per 32-oz. pot. Water was added on a regular basis to maintain the paddy flood, and supplemental lighting was provided with overhead metal halide 1000-Watt lamps as necessary. The plants were employed for testing when they reached the first through fourth true leaf stage.
# (§2) Treatments consisted of the acid or esters of 4-amino-3-chloro-5-fluoro-6-(4-chloro-2-fluoro-3-methoxy-phenyl)pyridine-2-carboxylic acid (compound A) each formulated as an SC and various herbicidal components alone and in combination. Forms of compound A were applied on an acid equivalent basis.
# (§3) Other herbicidal components were applied on an active ingredient basis and included the dimethoxy-pyrimidine acid acetolactate synthase (ALS)-inhibiting herbicides bispyribac-sodium formulated as Regiment® 80 WP, pyriminobac-methyl formulated as Hie Clean®, and pyriftalid (technical grade material).
# (§4) Treatment requirements for each compound or herbicidal component were calculated based upon the rates being tested, the concentration of active ingredient or acid equivalent in the formulation, an application volume of 2 mL per component per pot, and an application area of 86.59 cm^2 per pot.
# (§5) For formulated compounds, a measured amount was placed in an individual 100 or 200 mL glass vial and was dissolved in a volume of 1.25% (v/v) Agri-Dex® crop oil concentrate to obtain application solutions.
# (§6) For technical grade compounds, a weighed amount was placed in an individual 100 to 200 mL glass vial and was dissolved in a volume of acetone to obtain concentrated stock solutions. […] The concentrated stock solutions obtained were diluted with an equivalent volume of an aqueous mixture containing 2.5% (v/v) crop oil concentrate so that the final application solutions contained 1.25% (v/v) crop oil concentrate.
# (§7) Applications were made by injecting with a pipetter appropriate amounts of the application solutions, individually and sequentially, into the aqueous layer of the paddy.
# (§8) Control plants were treated in the same manner with the solvent blank. […]
# SCPMA = assay: as above; assay type: in vivo, Bolboschoenus maritimus (L.) Palla
# Procedure: as §1, §2, §3, §4, §5, §6, §7
# (§9) Control plants were treated in the same manner with the solvent blank. Applications were made so that all treated plant material received the same concentrations of acetone and crop oil concentrate.
# (§10) The treated plants and control plants were placed in a greenhouse as described above and water was added as needed to maintain a paddy flood. […]
# LEFCH [1] = assay: Postemergence foliar-applied weed control, direct seeded rice (greenhouse); assay type: in vivo, Leptochloa chinensis (L.) Nees
# Description: (§11) Seeds or nutlets of the desired test plant species were planted in a soil matrix prepared by mixing a loam or sandy loam soil (e.g., 28.6 percent silt, 18.8 percent clay, and 52.6 percent sand, with a pH of about 5.8 and an organic matter content of about 1.8 percent) and calcareous grit in an 80 to 20 ratio. The soil matrix was contained in plastic pots with a volume of 1 quart and a surface area of 83.6 square centimeters (cm^2). When required to ensure good germination and healthy plants, a fungicide treatment and/or other chemical or physical treatment was applied. The plants were grown for 8-22 days in a greenhouse with an approximate 14 hr photoperiod which was maintained at about 29° C. during the day and 26° C. during the night. Nutrients (Peters Excel® 15-5-15 5-Ca 2-Mg and iron chelate) were applied in the irrigation solution as needed and water was added on a regular basis. Supplemental lighting was provided with overhead metal halide 1000-Watt lamps as necessary. The plants were employed for testing when they reached the first through fourth true leaf stage.
# as §2, with “(Compound A),” for “(compound A)”, “SC (suspension concentrate),” for “SC”
# as §3, with “80WP, pyribenzoxim (technical grade material),” for “80 WP,”, “Hie-Clean® 1.2% GR dissolved in water,” for “Hie Clean®,”
# (§12) Treatment requirements were calculated based upon the rates being tested, the concentration of active ingredient or acid equivalent in the formulation, and a 12 mL application volume at a rate of 187 L/ha.
# (§13) For treatments comprised of formulated compounds, measured amounts of compounds were placed individually in 25 mL glass vials and diluted in a volume of 1.25% (v/v) Agri-Dex® crop oil concentrated to obtain 12× stock solutions. […] Application solutions were prepared by adding an appropriate amount of each stock solution (e.g., 1 mL) and diluted to the appropriate final concentrations with the addition of 10 mL of an aqueous mixture of 1.25% (v/v) crop oil concentrate so that the final spray solutions contained 1.25+/−0.005% (v/v) crop oil concentrate.
# (§14) For treatments comprised of technical compounds, weighed amounts can be placed individually in 25 mL glass vials and dissolved in a volume of 97:3 v/v acetone/DMSO to obtain 12× stock solutions. […] Application solutions can be prepared by adding an appropriate amount of each stock solution (e.g., 1 mL) and diluted to the appropriate final concentrations with the addition of 10 mL of an aqueous mixture of 1.5% (v/v) crop oil concentrate so that the final spray solutions contain 1.25% (v/v) crop oil concentrate. When technical materials are used, the concentrated stock solutions can be added to the spray solutions so that the final acetone and DMSO concentrations of the application solutions are 16.2% and 0.5%, respectively.
# (§15) For treatments comprised of formulated and technical compounds, weighed amounts of the technical materials were placed individually in 25 mL glass vials and dissolved in a volume of 97:3 v/v acetone/DMSO to obtain 12× stock solutions, and measured amounts of the formulated compounds were placed individually in 25 mL glass vials and diluted in a volume of 1.5% (v/v) crop oil concentrate or water to obtain 12× stock solutions. […]
# ECHCG = assay: In-water applied weed control, transplanted paddy rice (greenhouse); assay type: in vivo, Echinochloa crusgalli (L.) Beauv.
# Procedure: as §1, §2, §3, §4, §5, §6, §7, §9, §10
# LEFCH [2] = assay: as above; assay type: in vivo, Leptochloa chinensis (L.) Nees
# Procedure: as §1, §2, §3, §4, §5, §6, §7, §8
# CYPRO = assay: as above; assay type: in vivo, Cyperus rotundus L.
# Procedure: as §1, §2, §3, §4, §5, §6, §7, §9, §10
# DIGSA = assay: Postemergence foliar-applied weed control, direct seeded rice (greenhouse); assay type: in vivo, Digitaria sanguinalis (L.) Scop.
# Description: as §11
# as §2, with “(Compound A),” for “(compound A)”, “SC (suspension concentrate),” for “SC”
# as §3, with “80WP, pyribenzoxim (technical grade material),” for “80 WP,”, “Hie-Clean® 1.2% GR dissolved in water,” for “Hie Clean®,”
# as §12, §13
# as §14, with “When technical materials are used, the concentrated stock solutions can be added to the spray solutions so that the final acetone and DMSO concentrations of the application solutions are 16.2% and 0.5%, respectively.” left out
# as §15
# IPOHE = assay: as above; assay type: in vivo, Ipomoea hederacea Jacq.
# Description: as §11
# as §2, with “(Compound A),” for “(compound A)”, “SC (suspension concentrate),” for “SC”
# as §3, with “80WP, pyribenzoxim (technical grade material),” for “80 WP,”, “Hie-Clean® 1.2% GR dissolved in water,” for “Hie Clean®,”
# as §12, §13, §14, §15
# ECHCO = assay: In-water applied weed control, transplanted paddy rice (greenhouse); assay type: in vivo, Echinochloa colona (L.) Link; settings: 22.5 gai/ha
# Procedure: as §1, with “Water was added on a regular basis to maintain the paddy flood, and supplemental lighting was provided with overhead metal halide 1000-Watt lamps as necessary. The plants were employed for testing when they reached the first through fourth true leaf stage.” left out
# as §4
# For formulated compounds, a measured amount was placed in an individual 100 or 200 mL glass vial and was dissolved in a volume of 1.25% (v/v) Agri-Dex® crop oil concentrate to obtain application solutions. […]
# FIMMI = assay: as above; assay type: in vivo, Fimbristylis miliacea (L.) Vahl
# Procedure: as §1, §2, §3, §4, §5, §6, §7, §9, §10
smiles,measurement,setting,value
CCCCOC(=O)c1nc(-c2ccc(Cl)c(OC)c2F)c(F)c(N)c1Cl [Compound A n-Butyl Ester],Visual Weed Control (%)-20 DAA ECHOR Obs,ECHOR; 35 gae/ha,35%
same,Visual Weed Control (%)-20 DAA ECHOR Obs,ECHOR; 70 gae/ha,40%
same,Visual Weed Control (%)-20 DAA SCPMA Obs,SCPMA; 70 gae/ha,0%
"COc1cc(OC)nc(Oc2cccc(Oc3nc(OC)cc(OC)n3)c2C(=O)[O-])n1.[Na+] [Bispyribac-Sodium, sodium 2,6-bis[(4,6-dimethoxy-2-pyrimidinyl)oxy]benzoate, reference compound]",Visual Weed Control (%)-20 DAA LEFCH Obs,LEFCH [1]; 7 gai/ha,0%
same,Visual Weed Control (%)-20 DAA LEFCH Obs,LEFCH [1]; 14 gai/ha,0%
same,Visual Weed Control (%) - 20 DAA ECHCG Obs,ECHCG; 10 gai/ha,20%
same,Visual Weed Control (%) - 20 DAA ECHCG Obs,ECHCG; 20 gai/ha,35%
same,Visual Weed Control (%) - 20 DAA ECHCG Obs,ECHCG; 40 gai/ha,30%
same,Visual Weed Control (%)-20 DAA ECHOR Obs,"ECHOR; 40 gai/ha, Table 7",30%
same,Visual Weed Control (%)-20 DAA ECHOR Obs,"ECHOR; 40 gai/ha, Table 9",30%
same,Visual Weed Control (%)-20 DAA LEFCH Obs,LEFCH [2]; 40 gai/ha,28%
same,Visual Weed Control (%)-20 DAA SCPMA Obs,"SCPMA; 40 gai/ha, Table 7",38%
same,Visual Weed Control (%)-20 DAA SCPMA Obs,"SCPMA; 40 gai/ha, Table 8",38%
same,Visual Weed Control (%)-20 DAA SCPMA Obs,"SCPMA; 40 gai/ha, Table 9",38%
same,Visual Weed Control (%)-20 DAA CYPRO Obs,CYPRO; 10 gai/ha,0%
same,Visual Weed Control (%)-20 DAA CYPRO Obs,CYPRO; 20 gai/ha,0%
"CO/N=C(\C)c1cccc(Oc2nc(OC)cc(OC)n2)c1C(=O)OC [Pyriminobac-methyl, methyl 2-[(4,6-dimethoxy-2-pyrimidinyl)oxy]-6-[1-(methoxyimino)ethyl]benzoate, reference compound]",Visual Weed Control (%)-24 DAA LEFCH Obs,LEFCH [1]; 11.25 gai/ha,0%
same,Visual Weed Control (%)-24 DAA LEFCH Obs,LEFCH [1]; 22.5 gai/ha,0%
same,Visual Weed Control (%)-24 DAA DIGSA Obs,DIGSA; 11.25 gai/ha,0%
same,Visual Weed Control (%)-24 DAA DIGSA Obs,DIGSA; 22.5 gai/ha,0%
same,Visual Weed Control (%)-24 DAA IPOHE Obs,IPOHE; 11.25 gai/ha,10%
same,Visual Weed Control (%)-24 DAA IPOHE Obs,"IPOHE; 11.25 gai/ha, Table 4",10%
same,Visual Weed Control (%)-24 DAA IPOHE Obs,IPOHE; 22.5 gai/ha,10%
same,Visual Weed Control (%)-24 DAA IPOHE Obs,"IPOHE; 22.5 gai/ha, Table 4",10%
same,Visual Weed Control (%)-21 DAA IPOHE Obs,IPOHE; 90 gai/ha,20%
same,Visual Weed Control (%)-24 DAA IPOHE Obs,"IPOHE; 90 gai/ha, second part of Table 3",20%
same,Visual Weed Control (%)-21 DAA LEFCH Obs,LEFCH [2]; 45 gai/ha,80%
same,Visual Weed Control (%)-21 DAA SCPMA Obs,"SCPMA; 22.5 gai/ha, Table 10",0%
same,Visual Weed Control (%)-21 DAA SCPMA Obs,"SCPMA; 22.5 gai/ha, Table 11",0%
same,Visual Weed Control (%)-21 DAA SCPMA Obs,"SCPMA; 45 gai/ha, Table 10",0%
same,Visual Weed Control (%)-21 DAA SCPMA Obs,"SCPMA; 45 gai/ha, Table 11",0%
same,Visual Weed Control (%)-20 DAA SCPMA Obs,"SCPMA; 90 gai/ha, Table 10",43%
same,Visual Weed Control (%)-20 DAA SCPMA Obs,"SCPMA; 90 gai/ha, Table 11",43%
same,Visual Weed Control (%)-21 DAA CYPRO Obs,CYPRO; 22.5 gai/ha,0%
same,Visual Weed Control (%)-21 DAA ECHCO Obs,ECHCO,40%
same,Visual Weed Control (%)-21 DAA FIMMI Obs,FIMMI; 22.5 gai/ha,0%
same,Visual Weed Control (%)-21 DAA FIMMI Obs,FIMMI; 45 gai/ha,0%
